Measurements from patent publication US10144745B2, “Chimeric compounds targeting proteins, compositions, methods, and uses thereof” (BioTheryX, Inc., priority 2016, dated 2018).

Tests used:
Daudi cells = assay: Daudi Cell Proliferation (WST-1 cell viability); assay type: cell-based; conditions: Homo sapiens, 96 h; Daudi cells (Burkitt lymphoma cell line), treated for 4 days, viability by WST-1 relative to vehicle control
Procedure: Daudi cells, a Burkitt lymphoma cell line, was treated for 4 days with the indicated compound (10 nM, 100 nM, 1 μM, 10 μM, and 100 μM) or vehicle (DMSO), and cell viability was determined using the WST-1 tetrazolium reagent (Roche), and results were expressed as the percentage viability relative to the vehicle control, which was set at 100%. Based on resulting data, an IC50 was calculated for each compound.
IC50 values less than or equal to 2 μM are represented by “A;” IC50 values greater than 2 μM and less than or equal to 30 μM are represented by “B;” and IC50 values greater than 30 μM are represented by “C.”

FES = target: T1, FES (Homo sapiens, UniProt P07332); assay: Kinase Inhibition Assay (kinase-tagged phage / affinity bead competition binding, qPCR); conditions: Compounds were tested at 500 nM; read-out: FES (Percent Control)
T1 construct: made in house
Procedure: Kinase-tagged T7 phage strains were grown in parallel in 24-well blocks in an E. coli host derived from the BL21 strain. E. coli were grown to log-phase and infected with T7 phage from a frozen stock (multiplicity of infection=0.4) and incubated with shaking at 32° C. until lysis (90-150 minutes). The lysates were centrifuged (6,000×g) and filtered (0.2 μm) to remove cell debris. The remaining kinases were produced in HEK-293 cells and subsequently tagged with DNA for qPCR detection. […] The liganded beads were blocked with excess biotin and washed with blocking buffer (SeaBlock (Pierce), 1% BSA, 0.05% Tween 20, 1 mM DTT) to remove unbound ligand and to reduce non-specific phage binding.
Test compounds were prepared as 40× stocks in 100% DMSO and directly diluted into the assay. […] The kinase concentration in the eluates was measured by qPCR.

FGFR (G697C) = target: T2, FGFR (G697C) (Homo sapiens, UniProt P22607, G697C); assay: as above; conditions: Compounds were tested at 500 nM; read-out: FGFR (G697C) (Percent Control)
T2 construct: made in house
Procedure: Kinase-tagged T7 phage strains were grown in parallel in 24-well blocks in an E. coli host derived from the BL21 strain. E. coli were grown to log-phase and infected with T7 phage from a frozen stock (multiplicity of infection=0.4) and incubated with shaking at 32° C. until lysis (90-150 minutes). The lysates were centrifuged (6,000×g) and filtered (0.2 μm) to remove cell debris. The remaining kinases were produced in HEK-293 cells and subsequently tagged with DNA for qPCR detection. Streptavidin-coated magnetic beads were treated with biotinylated small molecule ligands for 30 minutes at room temperature to generate affinity resins for kinase assays. The liganded beads were blocked with excess biotin and washed with blocking buffer (SeaBlock (Pierce), 1% BSA, 0.05% Tween 20, 1 mM DTT) to remove unbound ligand and to reduce non-specific phage binding.
Binding reactions were assembled by combining kinases, liganded affinity beads, and test compounds in 1× binding buffer (20% SeaBlock, 0.17×PBS, 0.05 Tween 20, 6 mM DTT). Test compounds were prepared as 40× stocks in 100% DMSO and directly diluted into the assay. All reactions were performed in polypropylene 384-well plates in a final volume of 0.02 mL. The assay plates were incubated at room temperature with shaking for 1 hour and the affinity beads were washed with wash buffer (1×PBS, 0.05% Tween 20). […]

T2 sequence (P22607 23-806 G697C): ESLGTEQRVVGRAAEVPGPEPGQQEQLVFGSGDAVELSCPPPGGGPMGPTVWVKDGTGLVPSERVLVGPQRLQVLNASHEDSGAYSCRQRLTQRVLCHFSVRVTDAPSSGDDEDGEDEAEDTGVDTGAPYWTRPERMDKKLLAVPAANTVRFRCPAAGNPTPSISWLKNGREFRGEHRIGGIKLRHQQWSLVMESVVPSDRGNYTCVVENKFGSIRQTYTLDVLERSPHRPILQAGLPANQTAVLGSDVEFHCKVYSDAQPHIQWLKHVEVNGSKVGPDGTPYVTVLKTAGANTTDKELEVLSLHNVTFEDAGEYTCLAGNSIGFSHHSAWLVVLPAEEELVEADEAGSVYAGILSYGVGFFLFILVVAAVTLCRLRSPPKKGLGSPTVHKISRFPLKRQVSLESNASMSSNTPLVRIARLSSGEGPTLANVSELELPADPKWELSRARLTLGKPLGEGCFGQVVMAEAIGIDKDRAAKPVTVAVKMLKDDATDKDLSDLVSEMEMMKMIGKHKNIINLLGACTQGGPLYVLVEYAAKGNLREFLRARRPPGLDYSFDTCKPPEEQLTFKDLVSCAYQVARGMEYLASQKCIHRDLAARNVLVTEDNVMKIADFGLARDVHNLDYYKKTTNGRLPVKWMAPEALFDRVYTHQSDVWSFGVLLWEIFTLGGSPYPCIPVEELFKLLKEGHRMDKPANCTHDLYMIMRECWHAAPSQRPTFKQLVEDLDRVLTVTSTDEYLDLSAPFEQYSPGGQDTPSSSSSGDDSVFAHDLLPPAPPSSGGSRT
T1 sequence (P07332 whole entry, species assumed): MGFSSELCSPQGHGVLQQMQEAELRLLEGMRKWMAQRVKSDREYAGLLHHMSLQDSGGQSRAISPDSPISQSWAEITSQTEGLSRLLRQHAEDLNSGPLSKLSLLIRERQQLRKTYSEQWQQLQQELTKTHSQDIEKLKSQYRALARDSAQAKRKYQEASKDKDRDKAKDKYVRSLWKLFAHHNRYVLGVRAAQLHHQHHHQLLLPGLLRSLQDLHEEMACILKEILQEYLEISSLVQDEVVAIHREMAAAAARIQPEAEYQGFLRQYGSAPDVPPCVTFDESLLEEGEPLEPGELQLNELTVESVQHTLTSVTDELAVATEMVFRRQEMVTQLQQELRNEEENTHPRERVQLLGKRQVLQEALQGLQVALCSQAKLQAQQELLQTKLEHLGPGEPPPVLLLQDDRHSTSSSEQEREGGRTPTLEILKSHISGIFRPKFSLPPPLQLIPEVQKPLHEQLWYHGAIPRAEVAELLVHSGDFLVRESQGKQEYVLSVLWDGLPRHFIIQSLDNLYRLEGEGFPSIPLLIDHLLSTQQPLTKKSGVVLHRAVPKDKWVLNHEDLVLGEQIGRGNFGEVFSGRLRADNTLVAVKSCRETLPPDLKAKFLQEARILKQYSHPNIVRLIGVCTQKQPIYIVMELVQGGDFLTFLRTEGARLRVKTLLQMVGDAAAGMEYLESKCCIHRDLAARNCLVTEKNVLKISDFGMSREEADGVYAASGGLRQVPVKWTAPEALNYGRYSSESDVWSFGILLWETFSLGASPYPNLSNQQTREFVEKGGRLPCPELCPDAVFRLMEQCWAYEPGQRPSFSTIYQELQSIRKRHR

| Structure (SMILES) | IC50 (Daudi cells) | remaining binding at 0.5 µM (FES) | remaining binding at 0.5 µM (FGFR (G697C)) |
| --- | --- | --- | --- |
| O=C1CCC[C@H](N2Cc3c(cccc3C(F)F)C2=O)C(=O)N1 [Compound 42, (S)-3-(4-(Difluoromethyl)-1-oxoisoindolin-2-yl)azepane-2,7-dione] | 2 to 30 µM |  |  |
| C=C(C)c1cccc2c1CN([C@H]1CCCC(=O)NC1=O)C2=O [Compound 43, (S)-3-(1-Oxo-4-(prop-1-en-2-yl)isoindolin-2-yl)azepane-2,7-dione] | ≤ 2 µM |  |  |
| CC(C)c1cccc2c1CN([C@H]1CCCC(=O)NC1=O)C2=O [Compound 45, (S)-3-(4-Isopropyl-1-oxoisoindolin-2-yl)azepane-2,7-dione] | > 30 µM |  |  |
| Cc1cnc(Nc2ccc(OCCCNCC(=O)Nc3cccc4c3CN([C@H]3CCCC(=O)NC3=O)C4=O)cc2)nc1Nc1cccc(S(=O)(=O)NC(C)(C)C)c1 [Compound 66, (S)-2-((3-(4-((4-((3-(N-(tert-Butyl)sulfamoyl)phenyl)amino)-5-methylpyrimidin-2-yl)amino)phenoxy)propyl)amino)-N-(2-(2,7-dioxoazepan-3-yl)-1-oxoisoindolin-4-yl)acetamide] |  | 15% | 4.8% |
| Cc1cnc(Nc2ccc(OCCN3CCCC3)cc2)nc1Nc1cccc(S(=O)(=O)NC(C)(C)C)c1 [Fedratinib, reference compound] |  |  | 57% |
| Nc1cccc2c1CN(C1CCC(=O)NC1=O)C2=O (stereo not shown) [Lenalidomide, reference compound] | > 30 µM |  |  |
